Measurements taken from ChEMBL document CHEMBL4507304, “Data for DCP probe TP-021” (2021).

Key:
[1] = system: Tyrosine-protein kinase ABL1 (Homo sapiens), P00519 [F317I]; conditions: Compound concentration 1000.0 nM
[2] = target: Activin receptor type-1B (Homo sapiens) (UniProt P36896); conditions: Compound concentration 1000.0 nM
[3] = target: Cytoplasmic tyrosine-protein kinase BMX (Homo sapiens) (UniProt P51813); conditions: Compound concentration 1000.0 nM
[4] = target: Serine/threonine-protein kinase BRSK1 (Homo sapiens) (UniProt Q8TDC3); conditions: Compound concentration 1000.0 nM
[5] = target: Calcium/calmodulin-dependent protein kinase type 1B (Homo sapiens) (UniProt Q6P2M8); conditions: Compound concentration 1000.0 nM
[6] = target: Cyclin-dependent kinase 13 (Homo sapiens) (UniProt Q14004); conditions: Compound concentration 1000.0 nM
[7] = target: Casein kinase II subunit alpha' (Homo sapiens) (UniProt P19784); conditions: Compound concentration 1000.0 nM
[8] = target: Serine/threonine-protein kinase DCLK3 (Homo sapiens) (UniProt Q9C098); conditions: Compound concentration 1000.0 nM
[9] = target: Mitogen-activated protein kinase kinase kinase 12 (Homo sapiens) (UniProt Q12852); conditions: Compound concentration 1000.0 nM
[10] = target: Serine/threonine-protein kinase 17A (Homo sapiens) (UniProt Q9UEE5); conditions: Compound concentration 1000.0 nM
[11] = target: Fibroblast growth factor receptor 1 (Homo sapiens) (UniProt P11362); conditions: Compound concentration 1000.0 nM
[12] = system: Fibroblast growth factor receptor 3 (Homo sapiens), P22607 [G697C]; conditions: Compound concentration 1000.0 nM
[13] = target: Serine/threonine-protein kinase ICK (Homo sapiens) (UniProt Q9UPZ9); conditions: Compound concentration 1000.0 nM
[14] = target: Tyrosine-protein kinase JAK1 (Homo sapiens) (UniProt P23458); conditions: Compound concentration 1000.0 nM
[15] = target: Mitogen-activated protein kinase kinase kinase 15 (Homo sapiens) (UniProt Q6ZN16); conditions: Compound concentration 1000.0 nM
[16] = target: Mitogen-activated protein kinase kinase kinase 2 (Homo sapiens) (UniProt Q9Y2U5); conditions: Compound concentration 1000.0 nM
[17] = target: MAP/microtubule affinity-regulating kinase 3 (Homo sapiens) (UniProt P27448); conditions: Compound concentration 1000.0 nM
[18] = target: Dual specificity mitogen-activated protein kinase kinase 5 (Homo sapiens) (UniProt Q13163); conditions: Compound concentration 1000.0 nM
[19] = target: MAP kinase-interacting serine/threonine-protein kinase 1 (Homo sapiens) (UniProt Q9BUB5); conditions: Compound concentration 1000.0 nM
[20] = target: Serine/threonine-protein kinase MRCK alpha (Homo sapiens) (UniProt Q5VT25); conditions: Compound concentration 1000.0 nM
Serine/threonine-protein kinase MRCK alpha (Homo sapiens), sequence (Q5VT25 whole entry): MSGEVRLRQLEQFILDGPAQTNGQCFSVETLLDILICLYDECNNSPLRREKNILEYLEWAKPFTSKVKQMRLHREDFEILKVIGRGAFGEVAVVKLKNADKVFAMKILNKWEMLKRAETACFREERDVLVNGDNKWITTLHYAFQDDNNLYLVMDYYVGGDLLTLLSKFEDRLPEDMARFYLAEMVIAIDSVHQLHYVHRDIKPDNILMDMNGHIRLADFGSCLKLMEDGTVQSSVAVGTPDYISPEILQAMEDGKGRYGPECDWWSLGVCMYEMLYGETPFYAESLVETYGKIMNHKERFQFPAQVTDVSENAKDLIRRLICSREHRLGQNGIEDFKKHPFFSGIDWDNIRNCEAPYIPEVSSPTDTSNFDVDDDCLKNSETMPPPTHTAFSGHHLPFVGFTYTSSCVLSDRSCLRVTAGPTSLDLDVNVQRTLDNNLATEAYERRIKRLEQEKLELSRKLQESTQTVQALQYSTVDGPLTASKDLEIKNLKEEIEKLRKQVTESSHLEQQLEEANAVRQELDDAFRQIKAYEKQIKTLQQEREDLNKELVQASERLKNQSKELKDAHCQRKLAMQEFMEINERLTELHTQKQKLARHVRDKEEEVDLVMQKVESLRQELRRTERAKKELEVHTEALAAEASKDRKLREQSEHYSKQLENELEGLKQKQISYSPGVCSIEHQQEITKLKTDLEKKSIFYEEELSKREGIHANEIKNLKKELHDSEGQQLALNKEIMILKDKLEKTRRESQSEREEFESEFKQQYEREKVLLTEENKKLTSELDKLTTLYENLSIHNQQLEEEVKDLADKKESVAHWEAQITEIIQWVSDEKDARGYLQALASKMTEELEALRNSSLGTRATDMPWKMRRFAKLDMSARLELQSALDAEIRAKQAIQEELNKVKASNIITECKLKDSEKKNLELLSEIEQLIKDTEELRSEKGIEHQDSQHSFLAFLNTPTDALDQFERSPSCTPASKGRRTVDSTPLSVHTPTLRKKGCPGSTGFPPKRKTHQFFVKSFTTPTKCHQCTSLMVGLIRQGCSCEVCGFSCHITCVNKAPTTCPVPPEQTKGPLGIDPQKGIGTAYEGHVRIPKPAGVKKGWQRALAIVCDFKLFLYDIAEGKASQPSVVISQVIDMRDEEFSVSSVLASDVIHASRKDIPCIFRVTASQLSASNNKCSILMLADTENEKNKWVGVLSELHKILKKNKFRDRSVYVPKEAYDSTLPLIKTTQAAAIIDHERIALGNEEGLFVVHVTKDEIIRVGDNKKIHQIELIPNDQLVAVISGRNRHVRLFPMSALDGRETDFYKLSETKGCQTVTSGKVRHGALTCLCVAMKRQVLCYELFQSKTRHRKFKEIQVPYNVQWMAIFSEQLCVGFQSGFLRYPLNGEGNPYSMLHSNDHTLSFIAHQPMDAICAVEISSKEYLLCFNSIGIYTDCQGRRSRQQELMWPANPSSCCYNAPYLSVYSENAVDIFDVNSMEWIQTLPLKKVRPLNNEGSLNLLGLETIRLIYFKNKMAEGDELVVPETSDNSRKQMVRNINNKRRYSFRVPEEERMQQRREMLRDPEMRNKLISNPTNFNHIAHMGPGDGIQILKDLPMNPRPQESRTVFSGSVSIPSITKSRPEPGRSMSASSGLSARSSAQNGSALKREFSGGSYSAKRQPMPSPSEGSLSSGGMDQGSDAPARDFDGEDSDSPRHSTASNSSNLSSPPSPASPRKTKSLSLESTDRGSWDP

[21] = target: Macrophage-stimulating protein receptor (Homo sapiens) (UniProt Q04912); conditions: Compound concentration 1000.0 nM
[22] = target: Serine/threonine-protein kinase 26 (Homo sapiens) (UniProt Q9P289); conditions: Compound concentration 1000.0 nM
[23] = target: Myosin light chain kinase 2, skeletal/cardiac muscle (Homo sapiens) (UniProt Q9H1R3); conditions: Compound concentration 1000.0 nM
Myosin light chain kinase 2, skeletal/cardiac muscle (Homo sapiens), sequence (Q9H1R3 whole entry): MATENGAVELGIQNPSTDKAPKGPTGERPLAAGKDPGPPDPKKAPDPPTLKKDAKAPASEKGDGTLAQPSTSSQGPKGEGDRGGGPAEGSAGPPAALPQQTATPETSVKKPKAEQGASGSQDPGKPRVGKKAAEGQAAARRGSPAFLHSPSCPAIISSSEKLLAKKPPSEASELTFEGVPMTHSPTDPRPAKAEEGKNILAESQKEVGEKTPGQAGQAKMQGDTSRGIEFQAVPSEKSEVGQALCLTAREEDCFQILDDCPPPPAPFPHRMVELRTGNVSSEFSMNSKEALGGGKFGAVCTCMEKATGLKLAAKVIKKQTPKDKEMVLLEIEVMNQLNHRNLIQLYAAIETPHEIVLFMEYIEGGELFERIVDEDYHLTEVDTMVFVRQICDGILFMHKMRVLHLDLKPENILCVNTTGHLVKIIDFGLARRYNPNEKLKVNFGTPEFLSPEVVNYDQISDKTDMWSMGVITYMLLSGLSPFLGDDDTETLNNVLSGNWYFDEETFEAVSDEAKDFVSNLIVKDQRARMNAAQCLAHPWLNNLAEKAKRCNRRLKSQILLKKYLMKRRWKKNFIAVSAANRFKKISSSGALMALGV

[24] = target: Serine/threonine-protein kinase NLK (Homo sapiens) (UniProt Q9UBE8); conditions: Compound concentration 1000.0 nM
[25] = target: Mitogen-activated protein kinase 12 (Homo sapiens) (UniProt P53778); conditions: Compound concentration 1000.0 nM
Mitogen-activated protein kinase 12 (Homo sapiens), sequence (P53778 whole entry): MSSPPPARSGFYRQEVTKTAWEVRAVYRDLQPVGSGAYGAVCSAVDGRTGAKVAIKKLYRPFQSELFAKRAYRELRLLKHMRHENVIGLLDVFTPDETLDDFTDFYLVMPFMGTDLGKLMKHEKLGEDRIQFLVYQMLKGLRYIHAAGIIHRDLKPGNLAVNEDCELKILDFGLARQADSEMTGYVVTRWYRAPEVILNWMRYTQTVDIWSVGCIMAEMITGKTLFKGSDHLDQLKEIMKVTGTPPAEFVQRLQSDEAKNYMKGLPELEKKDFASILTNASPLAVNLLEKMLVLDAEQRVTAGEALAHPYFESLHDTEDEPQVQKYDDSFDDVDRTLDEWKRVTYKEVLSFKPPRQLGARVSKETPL

[26] = target: Platelet-derived growth factor receptor alpha (Homo sapiens) (UniProt P16234); conditions: Compound concentration 1000.0 nM
Platelet-derived growth factor receptor alpha (Homo sapiens), sequence (P16234 whole entry, canonical isoform): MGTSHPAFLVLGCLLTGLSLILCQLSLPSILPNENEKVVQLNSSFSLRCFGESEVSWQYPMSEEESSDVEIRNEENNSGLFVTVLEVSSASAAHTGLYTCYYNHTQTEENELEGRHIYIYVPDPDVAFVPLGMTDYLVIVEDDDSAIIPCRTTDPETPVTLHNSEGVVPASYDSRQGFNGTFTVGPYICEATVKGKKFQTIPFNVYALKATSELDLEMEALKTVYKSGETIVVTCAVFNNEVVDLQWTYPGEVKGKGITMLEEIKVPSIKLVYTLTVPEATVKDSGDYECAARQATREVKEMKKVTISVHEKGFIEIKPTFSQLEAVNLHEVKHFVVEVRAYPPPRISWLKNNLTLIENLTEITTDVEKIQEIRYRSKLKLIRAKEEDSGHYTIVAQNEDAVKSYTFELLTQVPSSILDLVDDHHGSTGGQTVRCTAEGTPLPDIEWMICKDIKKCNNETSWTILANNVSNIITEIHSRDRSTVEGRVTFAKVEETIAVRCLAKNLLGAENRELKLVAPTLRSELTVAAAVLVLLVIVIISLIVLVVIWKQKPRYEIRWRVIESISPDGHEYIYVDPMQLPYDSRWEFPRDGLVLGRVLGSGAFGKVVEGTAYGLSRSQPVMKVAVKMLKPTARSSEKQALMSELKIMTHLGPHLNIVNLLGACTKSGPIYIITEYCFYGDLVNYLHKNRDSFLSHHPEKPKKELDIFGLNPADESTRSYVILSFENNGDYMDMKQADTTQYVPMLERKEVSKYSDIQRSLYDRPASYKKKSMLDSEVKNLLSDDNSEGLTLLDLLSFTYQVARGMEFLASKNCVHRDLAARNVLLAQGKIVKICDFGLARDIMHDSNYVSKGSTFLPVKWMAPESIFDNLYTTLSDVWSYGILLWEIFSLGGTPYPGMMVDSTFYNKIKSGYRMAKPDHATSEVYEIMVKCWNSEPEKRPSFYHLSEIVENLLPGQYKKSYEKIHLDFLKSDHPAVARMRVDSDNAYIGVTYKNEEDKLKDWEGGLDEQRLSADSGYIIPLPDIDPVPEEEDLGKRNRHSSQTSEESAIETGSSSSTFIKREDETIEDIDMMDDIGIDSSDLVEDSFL

[27] = system: Phosphatidylinositol 4,5-bisphosphate 3-kinase catalytic subunit alpha isoform (Homo sapiens), P42336 [H1047L]; conditions: Compound concentration 1000.0 nM
Phosphatidylinositol 4,5-bisphosphate 3-kinase catalytic subunit alpha isoform (Homo sapiens), P42336 [H1047L], sequence (P42336 whole entry H1047L, canonical isoform): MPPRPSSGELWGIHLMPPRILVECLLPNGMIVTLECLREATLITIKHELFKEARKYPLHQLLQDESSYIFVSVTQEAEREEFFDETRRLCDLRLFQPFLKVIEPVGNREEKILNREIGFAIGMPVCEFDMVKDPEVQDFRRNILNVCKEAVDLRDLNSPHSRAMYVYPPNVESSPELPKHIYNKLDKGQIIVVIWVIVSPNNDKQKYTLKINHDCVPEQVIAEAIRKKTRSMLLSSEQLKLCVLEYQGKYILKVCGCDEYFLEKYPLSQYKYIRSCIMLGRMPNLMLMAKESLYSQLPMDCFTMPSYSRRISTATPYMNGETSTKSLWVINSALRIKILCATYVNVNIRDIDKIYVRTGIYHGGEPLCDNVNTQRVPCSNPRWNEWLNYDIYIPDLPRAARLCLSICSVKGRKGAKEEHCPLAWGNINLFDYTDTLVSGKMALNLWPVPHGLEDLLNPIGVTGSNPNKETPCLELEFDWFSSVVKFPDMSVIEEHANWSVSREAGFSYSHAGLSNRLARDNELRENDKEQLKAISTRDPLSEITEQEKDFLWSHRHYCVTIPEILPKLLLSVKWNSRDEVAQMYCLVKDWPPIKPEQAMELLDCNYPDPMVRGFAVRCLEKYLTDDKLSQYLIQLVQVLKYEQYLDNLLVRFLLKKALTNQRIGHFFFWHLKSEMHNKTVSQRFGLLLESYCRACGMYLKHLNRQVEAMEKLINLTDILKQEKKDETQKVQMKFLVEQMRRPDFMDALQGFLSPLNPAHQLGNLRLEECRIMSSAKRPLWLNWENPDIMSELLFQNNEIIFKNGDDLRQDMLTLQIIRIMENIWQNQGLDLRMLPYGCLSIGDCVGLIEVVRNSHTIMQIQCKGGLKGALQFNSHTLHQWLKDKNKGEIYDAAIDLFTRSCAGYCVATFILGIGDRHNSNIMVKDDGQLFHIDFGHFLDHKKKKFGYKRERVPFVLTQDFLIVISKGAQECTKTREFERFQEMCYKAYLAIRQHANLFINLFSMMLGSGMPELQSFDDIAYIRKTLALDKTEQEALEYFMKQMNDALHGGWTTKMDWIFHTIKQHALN

[28] = system: Phosphatidylinositol 4,5-bisphosphate 3-kinase catalytic subunit alpha isoform (Homo sapiens), P42336 [M1043I]; conditions: Compound concentration 1000.0 nM
[29] = target: Serine/threonine-protein kinase pim-3 (Homo sapiens) (UniProt Q86V86); conditions: Compound concentration 1000.0 nM
[30] = target: Serine/threonine-protein kinase RIO2 (Homo sapiens) (UniProt Q9BVS4); conditions: Compound concentration 1000.0 nM
[31] = target: Receptor-interacting serine/threonine-protein kinase 1 (Homo sapiens) (UniProt Q13546); conditions: Compound concentration 1000.0 nM
[32] = target: Ribosomal protein S6 kinase alpha-4 (Homo sapiens) (UniProt O75676); conditions: Compound concentration 1000.0 nM
[33] = target: Ribosomal protein S6 kinase alpha-6 (Homo sapiens) (UniProt Q9UK32); conditions: Compound concentration 1000.0 nM
[34] = target: Serine/threonine-protein kinase SBK1 (Homo sapiens) (UniProt Q52WX2); conditions: Compound concentration 1000.0 nM
[35] = target: Serine/threonine-protein kinase SIK1 (Homo sapiens) (UniProt P57059); conditions: Compound concentration 1000.0 nM
[36] = target: STE20-like serine/threonine-protein kinase (Homo sapiens) (UniProt Q9H2G2); conditions: Compound concentration 1000.0 nM
[37] = target: Dual specificity testis-specific protein kinase 1 (Homo sapiens) (UniProt Q15569); conditions: Compound concentration 1000.0 nM
[38] = target: Serine/threonine-protein kinase WNK2 (Homo sapiens) (UniProt Q9Y3S1); conditions: Compound concentration 1000.0 nM
[39] = target: Serine/threonine-protein kinase WNK3 (Homo sapiens) (UniProt Q9BYP7); conditions: Compound concentration 1000.0 nM
[40] = target: Serine/threonine-protein kinase 25 (Homo sapiens) (UniProt O00506); conditions: Compound concentration 1000.0 nM
[41] = target: Mitogen-activated protein kinase kinase kinase 19 (Homo sapiens) (UniProt Q56UN5); conditions: Compound concentration 1000.0 nM
[42] = target: 5-hydroxytryptamine receptor 6 (Homo sapiens) (UniProt P50406); conditions: Compound concentration 10.0 uM
[43] = target: 5-hydroxytryptamine receptor 7 (Homo sapiens) (UniProt P34969); conditions: Compound concentration 10.0 uM
[44] = target: Alpha-1D adrenergic receptor (Homo sapiens) (UniProt P25100); conditions: Compound concentration 10.0 uM
[45] = target: Sigma intracellular receptor 2 (Homo sapiens) (UniProt Q5BJF2); conditions: Compound concentration 10.0 uM
Sigma intracellular receptor 2 (Homo sapiens), sequence (Q5BJF2 whole entry): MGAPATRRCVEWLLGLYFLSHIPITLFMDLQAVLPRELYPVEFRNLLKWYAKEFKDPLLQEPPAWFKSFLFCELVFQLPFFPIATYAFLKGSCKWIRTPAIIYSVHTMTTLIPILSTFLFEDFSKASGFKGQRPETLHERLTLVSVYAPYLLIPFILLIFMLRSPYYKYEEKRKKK

O=C1CCc2cc(Nc3cc(OC4CCOCC4)c([N+](=O)[O-])cc3Cl)ccc2N1
inactive: residual activity [1] 92% | residual activity [2] 93% | residual activity [3] 69% | residual activity [4] 100% | residual activity [5] 68% | residual activity [6] 100% | residual activity [7] 76% | residual activity [8] 91% | residual activity [9] 100% | residual activity [10] 95% | residual activity [11] 93% | residual activity [12] 79% | residual activity [13] 100% | residual activity [14] 100% | residual activity [15] 78% | residual activity [16] 100% | residual activity [17] 100% | residual activity [18] 100% | residual activity [19] 100% | residual activity [20] 91% | residual activity [21] 100% | residual activity [22] 87% | residual activity [23] 90% | residual activity [24] 100% | residual activity [25] 100% | residual activity [26] 97% | residual activity [27] 78% | residual activity [28] 94% | residual activity [29] 100% | residual activity [30] 89% | residual activity [31] 100% | residual activity [32] 65% | residual activity [33] 77% | residual activity [34] 97% | residual activity [35] 96% | residual activity [36] 100% | residual activity [37] 92% | residual activity [38] 100% | residual activity [39] 87% | residual activity [40] 100% | residual activity [41] 100% | inhibition [42] -2.48% | inhibition [43] 12.3% | inhibition [44] 3.49% | inhibition [45] 27.1%

N#Cc1ccc(Nc2ccc3[nH]c(=O)[nH]c3c2)c(Cl)c1
inactive: residual activity [1] 81% | residual activity [2] 100% | residual activity [3] 100% | residual activity [4] 100% | residual activity [5] 78% | residual activity [6] 100% | residual activity [7] 83% | residual activity [8] 88% | residual activity [9] 100% | residual activity [10] 94% | residual activity [11] 100% | residual activity [12] 93% | residual activity [13] 97% | residual activity [14] 97% | residual activity [15] 68% | residual activity [16] 100% | residual activity [17] 100% | residual activity [18] 100% | residual activity [19] 100% | residual activity [20] 100% | residual activity [21] 100% | residual activity [22] 96% | residual activity [23] 99% | residual activity [24] 100% | residual activity [25] 100% | residual activity [26] 100% | residual activity [27] 78% | residual activity [28] 100% | residual activity [29] 100% | residual activity [30] 89% | residual activity [31] 100% | residual activity [32] 70% | residual activity [33] 84% | residual activity [34] 93% | residual activity [35] 100% | residual activity [36] 100% | residual activity [37] 100% | residual activity [38] 100% | residual activity [39] 100% | residual activity [40] 100% | residual activity [41] 100% | inhibition [42] -1.18% | inhibition [43] 8.12% | inhibition [44] -5.71% | inhibition [45] -4.12%
